Measured values reported in PubChem BioAssay (NCI).
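48-hour exposure; five concentrations; linearly interpolated endpoints. GI50 = concentration required for 50% inhibition of growth. TGI marks complete inhibition of growth.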

How the values were obtained:
Assay in all cases: NCI tumour cell line growth inhibition, 48 h
786-0 renal = system: 786-0 renal
A498 renal = system: A498 renal
A549 NSCLC = system: A549 NSCLC
ACHN renal = system: ACHN renal
BT-549 breast = system: BT-549 breast
CAKI-1 renal = system: CAKI-1 renal
CCRF-CEM leukemia = system: CCRF-CEM leukemia
COLO 205 colon = system: COLO 205 colon
DU-145 prostate = system: DU-145 prostate
EKVX NSCLC = system: EKVX NSCLC
HCC-2998 colon = system: HCC-2998 colon
HCT-116 colon = system: HCT-116 colon
HCT-15 colon = system: HCT-15 colon
HL-60(TB) leukemia = system: HL-60(TB) leukemia
HOP-62 NSCLC = system: HOP-62 NSCLC
HOP-92 NSCLC = system: HOP-92 NSCLC
HS 578T breast = system: HS 578T breast
HT29 colon = system: HT29 colon
IGROV1 ovarian = system: IGROV1 ovarian
K-562 leukemia = system: K-562 leukemia
KM12 colon = system: KM12 colon
LOX IMVI melanoma = system: LOX IMVI melanoma
M14 melanoma = system: M14 melanoma
MALME-3M melanoma = system: MALME-3M melanoma
MCF7 breast = system: MCF7 breast
MDA-MB-231 breast = system: MDA-MB-231 breast
MDA-MB-435 = system: MDA-MB-435
MOLT-4 leukemia = system: MOLT-4 leukemia
NCI-H226 lung = system: NCI-H226 lung

Work on C#Cc1nc(C2=C(C)C(OC(C)=O)/C(=N/OC(C)=O)C2)cs1 (configuration not stated) yielded a GI50 (786-0 renal) of 1.83 µM, a TGI (786-0 renal) of 3.33 µM and a GI50 (A498 renal) of 27.1 µM. It also gave a TGI (A498 renal) of 50.4 µM, a GI50 (A549 NSCLC) of 5.39 µM and a TGI (A549 NSCLC) of over 100 µM. The GI50 (ACHN renal) was 0.831 µM, the TGI (ACHN renal) was 7.17 µM and the GI50 (BT-549 breast) was 5.65 µM. It also gave a TGI (BT-549 breast) of 13 µM, a GI50 (CAKI-1 renal) of 4.66 µM and a TGI (CAKI-1 renal) of 11.7 µM. For the same compound, the GI50 (CCRF-CEM leukemia) was 0.188 µM, the TGI (CCRF-CEM leukemia) was 0.478 µM and the GI50 (COLO 205 colon) was 20.1 µM. For the same compound, the TGI (COLO 205 colon) was over 55.7 µM, the GI50 (DU-145 prostate) was 11.5 µM and the TGI (DU-145 prostate) was over 70.3 µM. The GI50 (EKVX NSCLC) was 12 µM, the TGI (EKVX NSCLC) was over 61.4 µM and the GI50 (HCC-2998 colon) was 23.2 µM. For the same compound, the TGI (HCC-2998 colon) was over 60.9 µM, the GI50 (HCT-116 colon) was 13.5 µM and the TGI (HCT-116 colon) was 30.4 µM. It also gave a GI50 (HCT-15 colon) of 6.21 µM, a TGI (HCT-15 colon) of 23.8 µM and a GI50 (HL-60(TB) leukemia) of 0.587 µM. It also gave a TGI (HL-60(TB) leukemia) of 1.32 µM, a GI50 (HOP-62 NSCLC) of 9.24 µM and a TGI (HOP-62 NSCLC) of over 23.6 µM. For the same compound, the GI50 (HOP-92 NSCLC) was 1.73 µM, the TGI (HOP-92 NSCLC) was 3.24 µM and the GI50 (HS 578T breast) was 8.7 µM. The TGI (HS 578T breast) was over 25.9 µM, the GI50 (HT29 colon) was 2.27 µM and the TGI (HT29 colon) was 6.67 µM. The GI50 (IGROV1 ovarian) was 0.745 µM, the TGI (IGROV1 ovarian) was 2.09 µM and the GI50 (K-562 leukemia) was 11.8 µM. It also gave a TGI (K-562 leukemia) of 53.5 µM, a GI50 (KM12 colon) of 47.4 µM and a TGI (KM12 colon) of over 100 µM. For the same compound, the GI50 (LOX IMVI melanoma) was 0.0198 µM, the TGI (LOX IMVI melanoma) was 0.0453 µM and the GI50 (M14 melanoma) was 21.3 µM. The TGI (M14 melanoma) was over 80 µM, the GI50 (MALME-3M melanoma) was 1.81 µM and the TGI (MALME-3M melanoma) was 4.86 µM. For the same compound, the GI50 (MCF7 breast) was 6.75 µM, the TGI (MCF7 breast) was over 76.6 µM and the GI50 (MDA-MB-231 breast) was 4.62 µM. It also gave a TGI (MDA-MB-231 breast) of over 20.6 µM, a GI50 (MDA-MB-435) of 34.5 µM and a TGI (MDA-MB-435) of over 77.3 µM. The GI50 (MOLT-4 leukemia) was 1.85 µM, the TGI (MOLT-4 leukemia) was 4.69 µM and the GI50 (NCI-H226 lung) was over 100 µM.
